Laboratory results from US10509036B2, “Methods of selecting and isolating cancer stem cells” (The Regents of the University of California, priority 2014, dated 2019).

Tested on: neuroblastoma cells (low NBDG and high NBDG)
Experiment: MTS assay (CellTiter 96 AQueous cell proliferation assay), low NBDG versus high NBDG neuroblastoma cells
Assay type: cell-based, human

SMILES	resistance of low NBDG cells to the chemotherapy drug compared with high NBDG cells (MTS assay)
COc1cccc2c1C(=O)c1c(O)c3c(c(O)c1C2=O)C[C@@](O)(C(=O)CO)C[C@@H]3O[C@H]1C[C@H](N)[C@H](O)[C@H](C)O1 [doxorubicin]	more resistant
CC[C@]1(O)C[C@H]2CN(CCc3c([nH]c4ccccc34)[C@@](C(=O)OC)(c3cc4c(cc3OC)N(C=O)[C@H]3[C@@](O)(C(=O)OC)[C@H](OC(C)=O)[C@]5(CC)C=CCN6CC[C@]43[C@@H]65)C2)C1 [vincristine]	more resistant
